“And” between values parts separate entries of the source, which are not always exact repeats. Identical values can stand only once. Like-named read-outs stand apart in the source and are kept apart here.
Assays:
[1] = cited from earlier work
dermal analgesia = test: Pin-prick test of dermal analgesia after epidermal application of local anesthetic emulsions on the forearm; format: in vivo, volunteers; settings: for Pin-prick test, M1–10: mean of patients 1-10 (out of 10 pin-pricks); for Pin-prick test, M1–12: mean of patients 1-12; for dermal analgesia, effectiveness versus placebo emulsion: under occlusion as well as under a non-occlusive bandage
Description: (§1) The anti perspiration effect of the present invention was determined in an experimental investigation of dermal analgesia and influence upon adrenaline-induced local sweating by epidermal application of different local anesthetic formulations.
(§2) 12 healthy medical students took part in the study.
(§3) Pre-formed pads, consisting of cellulose fibres, 2 times 2 centimetres, were soaked by a standardized procedure in either an emulsion containing 5% lidocaine base + 5% prilocaine base, an emulsifying agent and water, 10% lidocaine base in the same vehicle, 10% prilocaine base in the same vehicle, or a placebo emulsion containing the emulsifying agent and water only. On one forearm of the volunteer the four different emulsions were applied under occlusive dressings consisting of an impervious tape, while on the other arm the four emulsions were applied under a non-occlusive dressing, using surgical tape (3M). A certain distance between the application areas was chosen in order to avoid any risk of interference between them.
(§4) On the arms of the volunteers 11 and 12 the emulsions were applied directly to the skin, with no cellulose pads, but with occlusive and non-occlusive dressings applied as in the other volunteers.
(§5) The application time for the pads was 60 minutes.
(§6) Immediately after removal of the pads, the square areas under the two types of dressing were marked at the edges. A line was also marked within each applied area dividing them into two identical triangles. One of these surfaces were then used by pin-prick experiments, the other for studying the sweat response.
The pin-pricking procedure was carried out with disposable dental needles. In each of the test areas 10 pin-pricks were made. 10/10 represents full analgesia, 0/10 no analgesia.

[2] = test system: adrenaline-induced local sweating; test: OPT-test of sweat response after intradermal adrenaline, epidermal application of local anesthetic emulsions on the forearm; format: in vivo, volunteers; settings: for sweat response, induced by intracutaneous administration of adrenaline: 12 volunteers, epidermal application; for number of black-coloured sweat pores (OPT-test), M1-10: mean of patients 1-10; for number of black-coloured sweat pores (OPT-test), M1-12: mean of patients 1-12
Description: as §1, §2, §3, §4, §5, §6
(§7) Just under the apex of each test area triangle an intradermal wheal 0.1 ml adrenaline 1:10 000 was injected. Pain on injection was noted. The test area was then swabbed with OPT (5% orthophthaldialdehyde in xylol). After drying the OPT-applied area a plastic ring with adhesive on the back side was placed over the visible vasoconstricted area caused by the adrenaline effect, within the test triangle previously covered by the test compositions. The number of black-coloured sweat pores within the standardized diameter hole in the plastic rings was counted under a direct vision microscope.

[3] = Pain on intradermal injection of adrenaline solution in the test areas; format: in vivo; settings: 0.1 ml adrenaline 1:10 000 in the test area; all volunteers
Description: as §7
All volunteers reported pain at the intradermal injection of adrenaline solution at the placebo, the lidocaine and the prilocaine areas but not at the lidocaine-prilocaine areas.

[4] = Non-Occlusion, individual Patient No 1-10, pads, 60 minutes, 10/10 full analgesia, 0/10 no analgesia
[5] = Non-Occlusion, individual Patient No 11, 12, emulsions applied directly to the skin, no cellulose pads
[6] = Occlusion, individual Patient No 1-10, pads, 60 minutes, 10 pin-pricks, 10/10 full analgesia, 0/10 no analgesia
[7] = Occlusion, individual Patient No 11, 12, emulsions applied directly to the skin, no cellulose pads
[8] = total concentration of 10%, aqueous emulsion
[9] = Non-Occlusion, individual Patient No 1-10, soaked cellulose pads, 60 minutes
[10] = Occlusion, individual Patient No 1-10, soaked cellulose pads, 60 minutes, L—P 5%+5%, L 10%, P 10% emulsion

Row | SMILES | Pin-prick test (dermal analgesia; [4]) | Pin-prick test (dermal analgesia; [5]) | Pin-prick test, M1–10 (dermal analgesia; Non-Occlusion) | Pin-prick test, M1–12 (dermal analgesia; Non-Occlusion) | Pin-prick test (dermal analgesia; [6]) | Pin-prick test (dermal analgesia; [7]) | Pin-prick test, M1–10 (dermal analgesia; Occlusion) | Pin-prick test, M1–12 (dermal analgesia; Occlusion) | dermal analgesia, effectiveness versus placebo emulsion (dermal analgesia) | sweat response, induced by intracutaneous administration of adrenaline [2] | number of black-coloured sweat pores (OPT-test) [2, 9] | number of black-coloured sweat pores (OPT-test) [2, 5] | number of black-coloured sweat pores (OPT-test), M1-10 ([2]; Non-Occlusion) | number of black-coloured sweat pores (OPT-test), M1-12 ([2]; Non-Occlusion) | number of black-coloured sweat pores (OPT-test) [2, 10] | number of black-coloured sweat pores (OPT-test) [2, 7] | number of black-coloured sweat pores (OPT-test), M1-10 ([2]; Occlusion) | number of black-coloured sweat pores (OPT-test), M1-12 ([2]; Occlusion) | sweat response, effectiveness versus placebo ([2]; under non-occlusive bandage) | sweat response, effectiveness versus placebo ([2]; under occlusive bandage) | other results
1 | CCN(CC)CCOC(=O)c1ccc(N)cc1 [procaine] |  |  |  |  |  |  |  |  |  |  |  |  |  |  |  |  |  |  |  |  | antihydrotic effect ([1]; administered electrophoretically): possesses an antihydrotic effect; antihydrotic effect ([1]; without electrophoresis, only topically): will not give any antihydrotic effect
2 | CCCNC(C)C(=O)Nc1ccccc1C (stereo not shown) [P, 2-propylamino-N-(2-tolyl)propionamide] | 1/10 and 0/10 (8×) and 6/10 | 2/10 and 0/10 | 0.70 | 0.75 | 2/10 and 0/10 (6×) and 10/10 and 1/10 | 7/10 and 9/10 | 1.44 | 2.64 | insignificantly more effective than the placebo emulsion | partly blocked | 46 and 18 (2×) and 34 and 24 and 26 (2×) and 25 and 21 and 40 | 14 and 20 | 27.8 | 26.0 | 24 (2×) and 30 and 17 and 52 and 18 and 22 and 15 and 28 | 24 and 16 | 25.6 | 24.54 | more effective than placebo | significantly more effective than placebo | dermal analgesia (pin-pricking), compared among the tested formulations (dermal analgesia; [8]): less effective; sweat response inhibition, compared among the tested formulations [2, 8]: less effective; pain at the intradermal injection of adrenaline solution [3]: reported pain
3 | CCN(CC)CC(=O)Nc1c(C)cccc1C [L, Diethylaminoacet-2',6'-xylidide] | 0/10 (9×) and 1/10 | 0/10 | 0.10 | 0.08 | 0/10 (5×) and 2/10 (3×) and 5/10 and 3/10 | 8/10 and 6/10 | 1.40 | 2.33 | insignificantly more effective than the placebo emulsion | partly blocked | 42 and 24 (4×) and 29 and 27 and 25 and 19 and 32 | 22 and 33 | 27.0 | 27.08 | 22 (2×) and 25 and 20 (2×) and 24 (2×) and 16 (2×) and 28 | 12 and 26 | 21.7 | 21.25 | more effective than placebo | significantly more effective than placebo | pain at the intradermal injection of adrenaline solution [3]: reported pain

Reference: EP0002426B1, “Antiperspirant” (priority 1977, dated 1979)
